Where “and” joins values, the source holds several entries; their conditions need not be identical. Identical values can stand only once.
Tested on: mice, spared nerve injury (SNI) model
Assay: Single exposure place preference (sePP), SNI mice
Format: in vivo, mouse
Parameters: time spent in the paired compartment, individual mice: reference not given here
Experimental: Single exposure place preference.
Initial perception of the drugs was measured by single exposure place preference experiments performed in an elongated three compartment apparatus (67.5 cm x 24 cm) with a biased design of different floor textures and wall patterns and a neutral zone in the middle. We have […]
compartment and that a single exposure of psychostimulants in the grey compartment sufficiently changes the preference towards that compartment (9-11). For further details of the setup, we refer to (10). Experiments lasted three days with exposure sessions on days one and two and a preference test on day three. […]
Mice were left in Med-Associates square behavioral chambers (27 cm x 27 cm) to freely roam around for 60 min, four days in a row. […] On day three, both control and SNI mice were placed directly in the chambers and recorded for 60 min. On day four, control mice were injected s.c. with PBS, and SNI mice were injected with either 10 μmol/kg mPD5 or PBS immediately before being placed in the chambers and recorded for 60 min. The recordings were analyzed using the Avisoft SASLab Pro software (Version 5.02.07, Avisoft Bioacoustics) as described in (12), applying a fast fourier transformation (FFT) (1024 FTT length, 100% frame size, Blackman window, and 87.5% time window overlap). […]

Structure (SMILES): CCCCCCCCCCCCCC(=O)N(CCOCCOCCC(=O)N[C@@H](Cc1c[nH]cn1)C(=O)N[C@@H](Cc1c[nH]c2ccccc12)C(=O)N[C@@H](CC(C)C)C(=O)N[C@@H](CCCCN)C(=O)N[C@H](C(=O)O)C(C)C)CCOCCOCCC(=O)N[C@@H](Cc1c[nH]cn1)C(=O)N[C@@H](Cc1c[nH]c2ccccc12)C(=O)N[C@@H](CC(C)C)C(=O)N[C@@H](CCCCN)C(=O)N[C@H](C(=O)O)C(C)C [mPD5, myristoyl-NPEG4-(HWLKV)2]
- time spent in the paired compartment, individual mice (SNI mice conditioned with 30 μmol/kg): 0.9648 and 1.369 and 0.722 and 0.8519 and 0.9815 and 0.6715 and 0.5887 and 0.7233 and 1.085 and 1.235 and 0.7664
- time spent in the paired chamber compared to PBS (sePP) (SNI, male mice, s.c. 30 μmol/kg): did not change the time spent in the paired chamber

Source: paper PMC11530130, “Peripherally restricted PICK1 inhibitor mPD5 ameliorates pain behaviors in murine inflammatory and neuropathic pain models” (JCI Insight, 2024)
